Strand notation (5' to 3'): a small letter for the sugar, then the base; units joined by * are phosphorothioate-linked, units joined directly phosphodiester-linked; [ ] holds rarer units or linkages, { } end groups; capitals alone tell only the bases. k = constrained ethyl (cEt); [5mC] = 5-methylcytosine; d = 2'-deoxy (DNA)
These substances were tested on human SMAD7 mRNA (assay: Antisense inhibition of human SMAD7 mRNA expression in Hep3B cells by 3-10-3 cEt gapmers, 10,000 nM, electroporation (Example 2)). Details: Hep3B cells, electroporation with 10,000 nM antisense oligonucleotide, approximately 24 hours, SMAD7 mRNA by RT-PCR (RTS5062), relative to untreated control cells.
Format: cell-based
Procedure, shortened: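 Hep3B cells (20,000 per well) were electroporated with 10,000 nM 16-mer 3-10-3 cEt gapmer (phosphorothioate, 5-methylcytosine). After about 24 h, SMAD7 mRNA was quantified by qRT-PCR with primer probe set RTS5062, normalised to RIBOGREEN total RNA, and expressed as percent inhibition versus untreated cells.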
With “830155 (antisense kT*kG*kT*dG*d[5mC]*d[5mC]*dT*d[5mC]*dA*dG*d[5mC]*dA*dG*kT*kT*kA) [compound 830155]” the “% Inhibition” value was 38%. In the case of “830156 (antisense k[5mC]*kT*kG*dT*dG*d[5mC]*d[5mC]*dT*d[5mC]*dA*dG*d[5mC]*dA*kG*kT*kT) [compound 830156]”, the “% Inhibition” value is reported as 48%. For “830158 (antisense kA*kA*kT*dT*dG*dA*dG*dA*dA*d[5mC]*dT*dG*dT*kG*k[5mC]*k[5mC]) [compound 830158]”, the “% Inhibition” value was 43%. For “830159 (antisense k[5mC]*k[5mC]*kA*d[5mC]*dT*dA*dA*dA*dT*dT*dG*dA*dG*kA*kA*k[5mC]) [compound 830159]”, the “% Inhibition” value was 42%. For “830160 (antisense kT*kG*kG*dT*dG*dT*dG*dT*dT*dA*dA*d[5mC]*d[5mC]*kA*k[5mC]*kT) [compound 830160]”, the “% Inhibition” value was 54%. In the case of “830161 (antisense kA*kG*kG*dT*dG*dA*dA*dA*dG*dT*dT*dA*dT*k[5mC]*kA*k[5mC]) [compound 830161]”, the “% Inhibition” value is reported as 13%. With “830162 (antisense kA*k[5mC]*kA*dA*dG*dG*dT*dG*dA*dA*dA*dG*dT*kT*kA*kT) [compound 830162]” the “% Inhibition” value was 20%. With “830164 (antisense kG*k[5mC]*kT*dG*d[5mC]*dT*dT*dG*dG*d[5mC]*d[5mC]*dT*dT*kA*k[5mC]*k[5mC]) [compound 830164]” the “% Inhibition” value was 38%. With “830165 (antisense kA*k[5mC]*kA*dG*d[5mC]*dT*dG*dT*dA*d[5mC]*d[5mC]*dA*dG*kG*kG*k[5mC]) [compound 830165]” the “% Inhibition” value was 58%. With “830166 (antisense k[5mC]*kA*k[5mC]*dA*dG*d[5mC]*dT*dG*dT*dA*d[5mC]*d[5mC]*dA*kG*kG*kG) [compound 830166]” the “% Inhibition” value was 48%. With “830167 (antisense kT*kT*kT*dA*d[5mC]*dA*d[5mC]*dA*d[5mC]*d[5mC]*d[5mC]*d[5mC]*dA*kG*kG*kG) [compound 830167]” the “% Inhibition” value was 39%. “830169 (antisense k[5mC]*kT*k[5mC]*dT*dG*dT*dT*dT*dG*dG*dA*d[5mC]*dA*kA*kG*kT) [compound 830169]” was tested, and the “% Inhibition” value was 58%. “830171 (antisense kT*kG*k[5mC]*dT*d[5mC]*dT*dG*dT*dT*dT*dG*dG*dA*k[5mC]*kA*kA) [compound 830171]” was tested, and the “% Inhibition” value was 26%. In the case of “830172 (antisense k[5mC]*kT*kG*d[5mC]*dT*d[5mC]*dT*dG*dT*dT*dT*dG*dG*kA*k[5mC]*kA) [compound 830172]”, the “% Inhibition” value is reported as 27%. With “830173 (antisense kA*kG*kA*dG*dG*dT*dG*dT*dT*dT*d[5mC]*d[5mC]*dA*kA*kG*kG) [compound 830173]” the “% Inhibition” value was 48%. For “830174 (antisense kG*kA*kG*dA*dG*dG*dT*dG*dT*dT*dT*d[5mC]*d[5mC]*kA*kA*kG) [compound 830174]”, the “% Inhibition” value was 49%. With “830175 (antisense kT*k[5mC]*kT*d[5mC]*dA*dA*d[5mC]*dA*dG*dA*d[5mC]*d[5mC]*dA*k[5mC]*kA*k[5mC]) [compound 830175]” the “% Inhibition” value was 44%. With “830176 (antisense kA*kT*kT*d[5mC]*dT*d[5mC]*dA*dA*d[5mC]*dA*dG*dA*d[5mC]*k[5mC]*kA*k[5mC]) [compound 830176]” the “% Inhibition” value was 61%. For “830177 (antisense k[5mC]*kA*kG*d[5mC]*d[5mC]*d[5mC]*dT*dT*dT*d[5mC]*dA*d[5mC]*d[5mC]*k[5mC]*k[5mC]*kT) [compound 830177]”, the “% Inhibition” value was 40%. For “830178 (antisense kA*k[5mC]*kG*dA*d[5mC]*dA*dG*d[5mC]*d[5mC]*dT*dG*dG*dA*kG*kA*k[5mC]) [compound 830178]”, the “% Inhibition” value was 32%. With “830179 (antisense kT*kT*kT*dA*d[5mC]*dT*dG*d[5mC]*dA*dT*dT*d[5mC]*d[5mC]*kG*kG*k[5mC]) [compound 830179]” the “% Inhibition” value was 51%. “830181 (antisense kG*k[5mC]*kG*dG*d[5mC]*dT*dT*d[5mC]*d[5mC]*dT*dG*dT*dG*k[5mC]*k[5mC]*k[5mC]) [compound 830181]” was tested, and the “% Inhibition” value was 10%. With “830182 (antisense kG*kT*kG*dT*d[5mC]*d[5mC]*dT*dT*d[5mC]*dA*dG*dA*dA*k[5mC]*kA*k[5mC]) [compound 830182]” the “% Inhibition” value was 0%. For “830183 (antisense k[5mC]*kG*kG*dT*dT*dG*d[5mC]*d[5mC]*dT*d[5mC]*dA*dT*d[5mC]*k[5mC]*kT*kG) [compound 830183]”, the “% Inhibition” value was 47%. “830184 (antisense kA*k[5mC]*kG*dG*dT*dT*dG*d[5mC]*d[5mC]*dT*d[5mC]*dA*dT*k[5mC]*k[5mC]*kT) [compound 830184]” was tested, and the “% Inhibition” value was 48%. “830185 (antisense kG*k[5mC]*k[5mC]*dA*d[5mC]*d[5mC]*dA*dA*d[5mC]*dG*dG*dT*dT*kG*k[5mC]*k[5mC]) [compound 830185]” was tested, and the “% Inhibition” value was 27%. For “830186 (antisense kA*kG*kG*dT*d[5mC]*d[5mC]*dA*dG*dG*dG*dT*d[5mC]*d[5mC]*kT*k[5mC]*k[5mC]) [compound 830186]”, the “% Inhibition” value was 50%. With “830187 (antisense kA*kT*kT*dA*d[5mC]*d[5mC]*d[5mC]*dT*dG*d[5mC]*dT*d[5mC]*dA*kT*kG*kA) [compound 830187]” the “% Inhibition” value was 31%. With “830188 (antisense k[5mC]*k[5mC]*kA*d[5mC]*dT*dT*dA*dG*d[5mC]*dA*dA*dG*dG*kA*kG*k[5mC]) [compound 830188]” the “% Inhibition” value was 50%. “830189 (antisense kT*kT*kG*dG*dA*dG*d[5mC]*dA*dA*d[5mC]*dA*d[5mC]*d[5mC]*kA*kG*kA) [compound 830189]” was tested, and the “% Inhibition” value was 49%. In the case of “830190 (antisense kT*kA*kA*dT*d[5mC]*dA*dG*dA*dT*dG*d[5mC]*d[5mC]*dT*kG*k[5mC]*kT) [compound 830190]”, the “% Inhibition” value is reported as 39%. With “830191 (antisense k[5mC]*kT*kA*dA*dT*d[5mC]*dA*dG*dA*dT*dG*d[5mC]*d[5mC]*kT*kG*k[5mC]) [compound 830191]” the “% Inhibition” value was 47%. “830192 (antisense kA*k[5mC]*kT*dA*dA*dT*d[5mC]*dA*dG*dA*dT*dG*d[5mC]*k[5mC]*kT*kG) [compound 830192]” was tested, and the “% Inhibition” value was 41%. In the case of “830193 (antisense k[5mC]*kT*kT*dT*dT*d[5mC]*d[5mC]*dG*dG*dT*dA*dT*dT*kT*kT*k[5mC]) [compound 830193]”, the “% Inhibition” value is reported as 35%. In the case of “830194 (antisense k[5mC]*k[5mC]*kT*dT*dT*dT*d[5mC]*d[5mC]*dG*dG*dT*dA*dT*kT*kT*kT) [compound 830194]”, the “% Inhibition” value is reported as 49%. “830195 (antisense kA*kA*k[5mC]*d[5mC]*dT*dT*dT*dT*d[5mC]*d[5mC]*dG*dG*dT*kA*kT*kT) [compound 830195]” was tested, and the “% Inhibition” value was 35%. For “830196 (antisense kT*kT*kA*dA*dT*dG*dG*d[5mC]*d[5mC]*d[5mC]*dA*dG*d[5mC]*k[5mC]*k[5mC]*kA) [compound 830196]”, the “% Inhibition” value was 31%. In the case of “830197 (antisense kG*kT*kT*dA*dA*dT*dG*dG*d[5mC]*d[5mC]*d[5mC]*dA*dG*k[5mC]*k[5mC]*k[5mC]) [compound 830197]”, the “% Inhibition” value is reported as 31%. For “830198 (antisense kA*kG*kG*d[5mC]*dT*dA*d[5mC]*dA*d[5mC]*d[5mC]*dA*dA*dA*kG*kA*k[5mC]) [compound 830198]”, the “% Inhibition” value was 30%. For “830199 (antisense kA*kA*kG*dG*d[5mC]*dT*dA*d[5mC]*dA*d[5mC]*d[5mC]*dA*dA*kA*kG*kA) [compound 830199]”, the “% Inhibition” value was 37%. For “830200 (antisense kG*kA*kA*dG*dG*d[5mC]*dT*dA*d[5mC]*dA*d[5mC]*d[5mC]*dA*kA*kA*kG) [compound 830200]”, the “% Inhibition” value was 33%. For “830201 (antisense k[5mC]*kT*kG*dA*dA*dG*dG*d[5mC]*dT*dA*d[5mC]*dA*d[5mC]*k[5mC]*kA*kA) [compound 830201]”, the “% Inhibition” value was 37%. With “830202 (antisense kT*k[5mC]*kT*dG*dA*dA*dG*dG*d[5mC]*dT*dA*d[5mC]*dA*k[5mC]*k[5mC]*kA) [compound 830202]” the “% Inhibition” value was 50%. In the case of “830203 (kG*k[5mC]*kT*d[5mC]*dT*dG*dA*dA*dG*dG*d[5mC]*dT*dA*k[5mC]*kA*k[5mC]; antisense) [compound 830203]”, the “% Inhibition” value is reported as 40%. For “830204 (kG*kT*kA*dT*d[5mC]*d[5mC]*dA*dT*d[5mC]*dA*dA*d[5mC]*dT*kG*k[5mC]*kT; antisense) [compound 830204]”, the “% Inhibition” value was 59%. For “830205 (kG*kA*k[5mC]*dT*d[5mC]*dA*dT*d[5mC]*dA*dG*dG*d[5mC]*dA*kT*kT*k[5mC]; antisense) [compound 830205]”, the “% Inhibition” value was 26%. For “830206 (kT*kG*kA*d[5mC]*dT*d[5mC]*dA*dT*d[5mC]*dA*dG*dG*d[5mC]*kA*kT*kT; antisense) [compound 830206]”, the “% Inhibition” value was 51%. “830209 (kA*k[5mC]*k[5mC]*dG*dG*dA*dA*dG*dT*d[5mC]*dT*dT*dG*kT*kA*kT; antisense) [compound 830209]” was tested, and the “% Inhibition” value was 31%. With “830210 (kG*kA*k[5mC]*d[5mC]*dG*dG*dA*dA*dG*dT*d[5mC]*dT*dT*kG*kT*kA; antisense) [compound 830210]” the “% Inhibition” value was 29%. In the case of “830211 (kA*kG*kA*d[5mC]*d[5mC]*dG*dG*dA*dA*dG*dT*d[5mC]*dT*kT*kG*kT; antisense) [compound 830211]”, the “% Inhibition” value is reported as 30%. For “830212 (kG*k[5mC]*kA*dG*dG*dG*dT*dG*dG*dA*dG*dA*d[5mC]*k[5mC]*kG*kG; antisense) [compound 830212]”, the “% Inhibition” value was 43%.

— patent publication US10517889B2, “Modulators of SMAD7 expression” (Ionis Pharmaceuticals, Inc., priority 2017, dated 2019)
